According to PubChem BioAssay AID608 (Sanford-Burnham Center for Chemical Genomics, 2007):
Activity calls are given as the source filed them. The rule behind the calls is not given here.

Target: Peptidyl-prolyl cis-trans isomerase FKBP1A (Homo sapiens) (UniProt P62942)
Assay: FKBP12 binders, biophysical, NMR detection (AID 608)
Conditions: NMR binding, purified FKBP12

Chain of Peptidyl-prolyl cis-trans isomerase FKBP1A (Homo sapiens) (P62942 whole entry, looked up): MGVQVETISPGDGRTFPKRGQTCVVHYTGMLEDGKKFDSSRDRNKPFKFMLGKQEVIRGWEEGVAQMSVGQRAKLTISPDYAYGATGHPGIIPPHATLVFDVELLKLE

Compound	Kd
Cc1cc(C)nc(/N=C(/N)N2CCN(C)CC2)n1	> 4 mM (inactive)
CCOC(=O)Nc1ccc2c(C)cc(=O)oc2c1	> 4 mM (inactive)
O=C(O)/C=C/c1ccc(O)c(O)c1	> 4 mM (inactive)
CC(=O)Nn1c(=O)[nH]c2ccccc2c1=O	> 4 mM (inactive)
N=c1c2c3c(sc2ncn1N)CCCC3	> 4 mM (inactive)
Cc1ccc(S(C)(=O)=O)s1	> 4 mM (inactive)
Nc1ccc(O)cn1	> 4 mM (inactive)
CCN1CCC(=NO)CC1	> 4 mM (inactive)
COC(=O)c1sccc1S(=O)(=O)N1CCCC1	> 4 mM (inactive)
O=[n+]1cc(C2=CC=CCC2)n([O-])c2c1CCCCC2	> 4 mM (inactive)
CC(C)c1ccc2c(c1)CCC1[C@](C)(CN)CCC[C@]21C (some centres not stated)	> 4 mM (inactive)
CSc1n[nH]c(NCc2cccs2)n1	> 4 mM (inactive)
NC(N)=Nc1nc2ccccc2o1	> 4 mM (inactive)
O=C1NNC(=O)C2C3c4ccccc4C(c4ccccc43)C12 (configuration not stated)	> 4 mM (inactive)
S=C=NCc1ccccc1	> 4 mM (inactive)
CC1(C)C(=O)C=C[C@@]2(C)C1CC(=O)[C@]1(C)C2CC[C@@]2(C)[C@H](c3ccoc3)OC(=O)[C@H]3O[C@]321 (some centres not stated)	> 4 mM (inactive)
N=c1n(N)c2ccccc2n1CCO	> 4 mM (inactive)
c1ccc2c(c1)nnn2C1CCNCC1	> 4 mM (inactive)
COC(=O)C1Cc2ccccc2N1 (configuration not stated)	> 4 mM (inactive)
COc1ccc(-c2coc3c(O)c(OC)ccc3c2=O)cc1	> 4 mM (inactive)
COc1ccc(-c2cc(=O)c3c(O)cc(O[C@@H]4O[C@H](CO[C@H]5O[C@H](C)[C@@H](O)[C@H](O)[C@@H]5O)[C@@H](O)[C@H](O)[C@H]4O)cc3o2)cc1O	> 4 mM (inactive)
Nc1ncc2[nH]cnc2n1	> 4 mM (inactive)
Cc1occc1C(=O)Nc1ccc(C(N)=O)cc1	> 4 mM (inactive)
NCc1ccc(-c2cccs2)s1	> 4 mM (inactive)

Compound	Kd
O=C(Nc1ccccc1C(F)(F)F)N1CCCCCC1	> 4 mM (inactive)
COc1cc(-c2nnc(NC(C)=O)o2)cc(OC)c1OC	> 4 mM (inactive)
Cc1cc(C(=O)Nn2cnnc2)cs1	> 4 mM (inactive)
COC(CC(=O)O)c1nc2ccccc2s1 (configuration not stated)	> 4 mM (inactive)
CC1=C/C(=C\c2c(O)[nH]c(=O)[nH]c2=O)C(C)=N1	> 4 mM (inactive)
CP(C)(=O)c1cccc(C(=O)O)c1	> 4 mM (inactive)
Cn1nc(-c2cccs2)cc1N	> 4 mM (inactive)
CN(C)Cc1nc2c([nH]1)c(=O)[nH]c(=O)n2C	> 4 mM (inactive)
C/C=C(\C)c1nnc(NC(=O)c2ccco2)s1	> 4 mM (inactive)
O=C1CC(N2CCC(O)CC2)C(=O)N1c1ccc(F)cc1 (configuration not stated)	> 4 mM (inactive)
COc1ccccc1NS(=O)(=O)c1c[nH]c(=O)[nH]c1=O	> 4 mM (inactive)
Cc1onc(-c2ccc(F)cc2)c1C(=O)O	> 4 mM (inactive)
CN1CC(=O)Nc2ccc([N+](=O)[O-])cc2C1=O	> 4 mM (inactive)
O=C(O)CCc1ccc2c(c1)OCO2	> 4 mM (inactive)
C=C[C@@]1(C)CC(=O)[C@@]2(O)[C@](C)(O1)[C@@H](OC(C)=O)[C@@H](O)C1C(C)(C)CC[C@H](O)[C@@]12C (some centres not stated)	> 4 mM (inactive)
O=C(NC1=NCCS1)c1csc2ccccc12	> 4 mM (inactive)
Nc1cc(=O)[nH]c(SCC(=O)Nc2nccs2)n1	> 4 mM (inactive)
CC(C)c1ccc(SC(F)(F)C(=O)N2CCOCC2)cc1	0.0028 mM
CC(=O)NN1C(=O)c2cccc3cccc(c23)C1=O	> 4 mM (inactive)
CC(=O)Nc1ccc(S(=O)(=O)N(C)C)cc1	> 4 mM (inactive)
O=C1CSC(=Nc2ccccc2[N+](=O)[O-])N1	> 4 mM (inactive)
NC(=O)c1ccc(N2C(=O)C=CC2=O)cc1Cl	> 4 mM (inactive)
Nc1ccccc1-n1cccn1	> 4 mM (inactive)
